Reference: ChEMBL document CHEMBL1201862, “PubChem BioAssay data set” (2004)
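Where inhibition never reached the appropriate level, the endpoint shown equals the highest concentration tested. Otherwise, values were interpolated linearly from a five-concentration, 48-hour dose response in 96-well plates. GI50: concentration for 50% inhibition of growth.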 Active and inactive are the calls of the source. Rule as the data show it: active = GI50 up to about 1.1 µM and inactive = higher.

Key:
Test in all cases: inhibition of tumour cell growth, NCI panel, 48 h
A498 = test system: A498
DMS-114 = test system: DMS-114
DMS-273 = test system: DMS-273
HCC 2998 = test system: HCC 2998
HOP-18 = test system: HOP-18
HOP-92 = test system: HOP-92
K562 = test system: K562
LOX IMVI = test system: LOX IMVI
MCF7 = test system: MCF7
SN12C = test system: SN12C
SNB-75 = test system: SNB-75
XF498 = test system: XF498

## O=C1C=C[C@@H](COC2OC(CO)C(O)C(O)C2O)O1 (stereo partly drawn)
A498
  GI50: 16.1 µM (inactive)
DMS-114
  GI50: 14.1 µM (inactive)
DMS-273
  GI50: 14.1 µM (inactive)
HCC 2998
  GI50: 40 µM (inactive)
HOP-18
  GI50: 68.2 µM (inactive)
HOP-92
  GI50: 20.5 µM (inactive)
K562
  GI50: 3.42 µM (inactive)
LOX IMVI
  GI50: 3.88 µM (inactive)
MCF7
  GI50: 4.46 µM (inactive)
SN12C
  GI50: 5.93 µM (inactive)
SNB-75
  GI50: 14.9 µM (inactive)
XF498
  GI50: 16.6 µM (inactive)

## O=C(CCl)NC(Cc1ccc(F)cc1)C(=O)O (stereo not drawn)
A498
  GI50: > 100 µM (inactive)
DMS-114
  GI50: > 100 µM (inactive)
DMS-273
  GI50: > 100 µM (inactive)
HCC 2998
  GI50: > 92.7 µM (inactive)
HOP-18
  GI50: > 100 µM (inactive)
HOP-92
  GI50: > 100 µM (inactive)
K562
  GI50: > 100 µM (inactive)
LOX IMVI
  GI50: > 100 µM (inactive)
MCF7
  GI50: > 100 µM (inactive)
SN12C
  GI50: > 100 µM (inactive)
SNB-75
  GI50: > 100 µM (inactive)
XF498
  GI50: > 100 µM (inactive)

## Cc1c2ccnc(C(F)(F)F)c2cc2c1[nH]c1ccccc12
A498
  GI50: 11.4 µM (inactive)
DMS-114
  GI50: > 125 µM (inactive)
DMS-273
  GI50: > 125 µM (inactive)
HCC 2998
  GI50: > 125 µM (inactive)
HOP-18
  GI50: 0.673 µM (active)
HOP-92
  GI50: 8.63 µM (inactive)
K562
  GI50: > 125 µM (inactive)
LOX IMVI
  GI50: > 125 µM (inactive)
MCF7
  GI50: 17.1 µM (inactive)
SN12C
  GI50: > 125 µM (inactive)
SNB-75
  GI50: 64 µM (inactive)
XF498
  GI50: 12 µM (inactive)

## CC(O)C(O)C(N)CC=O (stereo not drawn)
A498
  GI50: 36.1 µM (inactive)
DMS-114
  GI50: > 500 µM (inactive)
DMS-273
  GI50: > 500 µM (inactive)
HCC 2998
  GI50: > 500 µM (inactive)
HOP-18
  GI50: > 500 µM (inactive)
HOP-92
  GI50: > 500 µM (inactive)
K562
  GI50: > 500 µM (inactive)
LOX IMVI
  GI50: 499 µM (inactive)
MCF7
  GI50: > 500 µM (inactive)
SN12C
  GI50: > 500 µM (inactive)
SNB-75
  GI50: > 500 µM (inactive)
XF498
  GI50: > 129 µM (inactive)
